Test [1] deals with Haemophilus influenzae PDF (Haemophilus influenzae, UniProt P44786). Nature of the test: PDF IC50 Assay 1 (FDH-coupled, absorbance 340 nm). It counts as biochemical. On the procedure:
(§1) Enzymatic activity of PDF was measured using a formate dehydrogenase (FDH)-coupled assay [Lazennec and Meinnel (1997) Anal. Biochem. 244, 180-182]. Once formate is released from methionine by PDF, it is oxidized by FDH thereby reducing one molecule of NAD to NADH and resulting in an increase in absorbance at 340 nm. Reactions were initiated by adding PDF to microtiter plates containing all other reaction components and were continuously monitored for 20 min at 25° C. The final reaction composition for the Staphylococcus aureus PDF (SaPDF) assay was 50 mM potassium phosphate, pH 7.6, 5 units/mL FDH, 7 mM NAD, 1% DMSO, 0.01% CHAPS, 1 nM SaPDF, and 3 mM formyl-Met-Ala-Ser in 40 μL total volume. Serial dilutions of inhibitors were performed in DMSO. Reagents and assay format were identical for Haemophilus influenzae PDF except that formyl-Met-Ala-Ser was 6 mM final. In the Streptococcus pneumoniae PDF assay, reaction conditions were similar but contained […] enzyme, 4 mM NAD and 4 mM formyl-Met-Ala-Ser. The varying formyl-Met-Ala-Ser concentrations reflect KM values for substrate using the different PDF isozymes. IC50s were determined by fitting to the equation: % Inhibition=100/1+(IC50/[l])^s, where s is a slope factor, l is the inhibitor concentration and the IC50 is the concentration of compound that causes 50% inhibition.

Test [2] has as its target T1, Staphylococcus aureus PDF (SaPDF) (Staphylococcus aureus, UniProt P68826).
T1 sequence (P68826 1-183): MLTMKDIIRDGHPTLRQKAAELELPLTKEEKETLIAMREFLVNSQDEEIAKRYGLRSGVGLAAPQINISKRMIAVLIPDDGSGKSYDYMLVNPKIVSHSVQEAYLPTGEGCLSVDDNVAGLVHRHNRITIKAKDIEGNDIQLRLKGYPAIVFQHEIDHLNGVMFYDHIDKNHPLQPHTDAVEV
Nature of the test: PDF IC50 Assay 1 (FDH-coupled, absorbance 340 nm). It counts as biochemical. The conditions noted are these: Assay 1 conditions; read-out: IC50, S. aureus PDF activity. The method, then:
as §1

The target of test [3] is T2, Streptococcus pneumoniae PDF (Streptococcus pneumoniae serotype 4, UniProt Q9F2F0).
T2 sequence (Q9F2F0 1-203): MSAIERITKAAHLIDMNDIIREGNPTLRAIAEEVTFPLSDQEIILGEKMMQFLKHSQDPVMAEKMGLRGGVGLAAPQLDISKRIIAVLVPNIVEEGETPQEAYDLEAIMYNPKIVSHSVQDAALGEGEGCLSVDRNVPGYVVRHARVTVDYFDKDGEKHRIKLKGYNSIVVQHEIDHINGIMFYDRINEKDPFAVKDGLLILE
Nature of the test: PDF IC50 Assay 1 (FDH-coupled, absorbance 340 nm). It counts as biochemical. The conditions noted are these: Assay 1 conditions; read-out: IC50, S. pneumoniae PDF activity. On the procedure:
as §1

In a further test the test system is Enterococcus faecalis I. Nature of the test: Antimicrobial activity assay (broth microdilution MIC). It counts as cell-based. Conditions: read-out: MIC, E. faecalis I. On the procedure: (§2) Whole-cell antimicrobial activity was determined by broth microdilution using the Clinical and Laboratory Standards Institute (CLSI, formerly NCCLS) recommended methodology (NCCLS Document M7-A7, “Methods for Dilution Antimicrobial Susceptibility Tests for Bacteria that Grow Aerobically; Approved Standard—Seventh Edition”, 2006). Compounds were tested in serial two-fold dilutions ranging from 64 to 0.06 μg/mL against a panel of at least 11 strains. This panel consisted of the following laboratory strains: Staphylococcus aureus Oxford, Staphylococcus aureus WCUH29, Enterococcus faecalis I, Enterococcus faecalis 7 or Enterococcus faecalis X7501, Haemophilus influenzae Q1, Haemophilus influenzae NEMC1 or Haemophilus influenzae H128, Moraxella catarrhalis 1502, Streptococcus pneumoniae 1629, Streptococcus pneumoniae N1387, Streptococcus pneumoniae Ery2 and Escherichia coli 7623 or Escherichia coli 3. All compounds were also tested against Haemophilus influenzae H128 or Escherichia coli 7623 efflux minus mutants (strains in which the AcrA efflux pump had been deleted) to ascertain the extent in which the molecules were effluxed out of the bacteria. In addition, the antibacterial activity of some compounds against Streptococcus pyogenes 1307006P and Streptococcus pyogenes 1308007P was also analyzed. The minimum inhibitory concentration (MIC) was determined as the lowest concentration of compound that inhibited visible growth. A mirror reader was used to assist in determining the MIC endpoint.
A general note: Broth dilution looks for growth in wells or tubes with falling amounts of substance.

In test [4] the test system is Enterococcus faecalis X7501. The description is as above. Conditions: read-out: MIC, E. faecalis X7501. It counts as cell-based. The method, then:
as §2

A further test has as its system Escherichia coli 3. The description is as above. It counts as cell-based. The conditions noted are these: read-out: MIC, E. coli 3. The method, then: as §2
Test [5] concerns Haemophilus influenzae H128. Described as above. It counts as cell-based. The conditions noted are these: read-out: MIC, H. influenzae H128. The method, then:
as §2

Test [6] relates to Haemophilus influenzae Q1. The test is described as above. It counts as cell-based. Conditions: Q1, broth microdilution, read-out: MIC, H. influenzae Q1. The method, then:
as §2

For test [7], the system named is Moraxella catarrhalis 1502. The description is as above. It counts as cell-based. On the procedure:
as §2

Test [8] relates to Staphylococcus aureus Oxford. The test is described as above. It counts as cell-based. The conditions noted are these: read-out: MIC, S. aureus Oxford. On the procedure:
as §2

The test system of test [9] is Staphylococcus aureus WCUH29. Described as above. Conditions: read-out: MIC, S. aureus WCUH29. It counts as cell-based. The method, then:
as §2

Test [10] relates to Streptococcus pneumoniae 1629. The test is described as above. It counts as cell-based. Conditions: read-out: MIC, S. pneumoniae 1629. The method, then: as §2
Test [11] relates to Streptococcus pneumoniae Ery2. The description is as above. It counts as cell-based. The conditions noted are these: ERY2, read-out: MIC, S. pneumoniae ERY2. The method, then:
as §2

Test [12] relates to Streptococcus pneumoniae N1387. Described as above. The conditions noted are these: read-out: MIC, S. pneumoniae N1387. It counts as cell-based. The method, then:
as §2

The test system of test [13] is Streptococcus pyogenes 1308007P. Described as above. It counts as cell-based. The conditions noted are these: read-out: MIC, S. pyogenes 1308007P. The method, then: as §2

One may read the IC50 as the concentration at which inhibition is half-maximal.

Converted amounts (≈) assume the structure as drawn. Bounds are passed on as bounds.

Haemophilus influenzae PDF, sequence (P44786 whole entry): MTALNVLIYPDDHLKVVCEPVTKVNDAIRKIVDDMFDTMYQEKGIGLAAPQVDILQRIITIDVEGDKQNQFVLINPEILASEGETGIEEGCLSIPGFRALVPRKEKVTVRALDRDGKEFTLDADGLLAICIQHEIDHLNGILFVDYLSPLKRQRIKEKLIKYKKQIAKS

In the case of `O=CN(O)C[C@@H](CC1CCCC1)C(=O)N1NCC[C@H]1C(=O)Nc1ccncn1` [Example 59, (3S)-2-((2R)-3-Cyclopentyl-2-{[formyl(hydroxy)amino]methyl}propanoyl)-N-4-pyrimidinyl-3-pyrazolidinecarboxamide], the IC50 in [1], in test [2] and in test [3] was ≤ 1000 nM in each case. The MIC was 2 µg/mL (≈ 5.12 µM) in the test on Enterococcus faecalis I; 1 µg/mL (≈ 2.56 µM) in test [4]; 16 µg/mL (≈ 41 µM) in the test with Escherichia coli 3; 0.5 µg/mL (≈ 1.28 µM) in test [5]; 0.25 µg/mL (≈ 0.64 µM) in test [6]; ≤ 0.06 µg/mL in test [7]. The MIC was 0.5 µg/mL (≈ 1.28 µM) in [8]; ≤ 0.06 µg/mL in test [9]; 1 µg/mL (≈ 2.56 µM) in [10]; 0.25 µg/mL (≈ 0.64 µM) in test [11]; 0.5 µg/mL (≈ 1.28 µM) in test [12]; 0.25 µg/mL (≈ 0.64 µM) in test [13].

These data come from patent US8901119B2, “Peptide deformylase inhibitors” (GlaxoSmithKline Intellectual Property (No. 2) Limited, priority 2011, dated 2014).
